According to patent US20180147189A1, “ADMINISTRATION REGIMEN FOR THERAPEUTIC AGENTS FOR ATAXIA IN SPINOCEREBELLAR DEGENERATION” (KISSEI PHARMACEUTICAL CO., LTD., priority 2015, published 2018):
One block for each compound: values may come before it.

Experiments:
ataxia in SCD = conditions: NPL 3, cited from earlier work
SCD patients [1] = assay: Clinical trial of SCD patients (Phase II study); assay type: in vivo, human; conditions: for amount of change in the SARA total score: 24 weeks, pure cerebellar SCD patients, mean
Protocol: Rovatirelin trihydrate (0.4, 0.8, 1.6 or 3.2 mg) or placebo was orally administered to 225 SCD patients once daily after breakfast for 24 weeks (double-blind).
The efficacy endpoint was the amount of change in the SARA total score calculated by, as an example, the SARA total score at the final assessment in the treatment period (the final observed value in the treatment period) minus that at the end of the pre-observation period as an example. The safety endpoints were, as an example, the occurrence of adverse events and side effects, physiological examinations (e.g., blood pressure and pulses), and endocrinologic examinations (e.g., FT3 and FT4).
It is noted that the SARA total score was calculated by a sum of the SARA scores for each item ((i.e., gait (score 0-8), stance (score 0-6), sitting (score 0-4), speech disturbance (score 0-6), finger chase (score 0-4), nose-finger test (score 0-4), fast alternating hand movements (score 0-4), and heel-shin slide (score 0-4) (the score 0 is normal for all items)).

[2] = test system: pure cerebellar SCD patients; assay: Long-term extension study of pure cerebellar SCD patients; assay type: in vivo, human; conditions: 2.4 mg once daily, at 52 weeks
Protocol: For patients who completed the phase III study (Example 4), rovatirelin trihydrate was administered at 1.6 or 2.4 mg once daily for 52 weeks (open-label parallel-group comparative study).
The same items as those listed in Example 4 were used as efficacy and safety endpoints, and deterioration rates (i.e., the number of deteriorated patients/total number of patients) in the SARA total score and SARA scores for each items were calculated in a similar manner.

[3] = Repeated dose study in healthy adult males; assay type: in vivo, human; conditions: for transition of FT3 value (serum concentration, mean) / transition of FT4 values (serum concentration, mean): oral, 9 days
Protocol: To 50 healthy adult males (8 individuals per group and 10 on placebo), rovatirelin trihydrate (0.25, 0.5 or 1.0 mg) or placebo was orally administered once daily or rovatirelin trihydrate (0.25 or 0.5 mg) or placebo was orally administered twice daily after breakfast and after dinner, for 9 consecutive days.
Serum concentrations (mean) of FT3, FT4, TSH, and prolactin (PRL), and adverse events and the like were evaluated.

SCD patients [4] = assay: Study of switch from conventional drugs to rovatirelin in SCD patients; assay type: in vivo, human; conditions: switch group from taltirelin, 24 weeks, P<0.01
Protocol: To the patients were orally administered rovatirelin trihydrate at 1.6 or 2.4 mg once daily after breakfast for 24 weeks (randomized, open-label parallel-group comparative study).
A 4-week pre-observation period was set prior to the start of the treatment period. For patients who received a conventional SCD agent taltirelin or protirelin agent (TRH agent) before the pre-observation period, the medication was continued until the end of the pre-observation period without changing its dosage and administration.
The same items as those listed in Example 4 were used as efficacy and safety endpoints.

[5] = test system: patients with pure cerebellar SCD; assay: Clinical trial of pure cerebellar SCD patients (Phase III study); assay type: in vivo, human
Protocol: Rovatirelin trihydrate at a dose of 1.6 or 2.4 mg or placebo was orally administered to patients with pure cerebellar SCD (SCA6, SCA31 or cortical cerebellar atrophy (CCA)) with ataxia once daily after breakfast for 28 weeks (double-blind; 124 patients in the 1.6 mg group, 122 patients in the 2.4 mg group, and 123 patients in the placebo group).
To appropriately assess the efficacy of rovatirelin trihydrate on ataxia, this study was performed on pure cerebellar SCD patients with a SARA gait score between 2 and 6 and a SARA total score of ≥6.
The same items as those listed in Example 3 were used as efficacy and safety endpoints. SCD is a disease that automatically becomes worse; therefore it is important in the treatment to retard the deterioration. Accordingly, patients with a […] in their SARA score compared with the time in week 0 were defined as deteriorated patients, and deterioration rates (i.e., the number of deteriorated patients/total number of patients) in the SARA total score and SARA scores for each item were calculated.

[6] = Pharmacokinetic study in humans, single dose on an empty stomach; assay type: in vivo, human; conditions: single dose 0.1-10 mg, healthy adult males
Protocol: Rovatirelin trihydrate (0.1, 0.3, 1, 2.5, 5 or 10 mg) or placebo was administered to 48 healthy adult males (6 individuals per group and 12 on placebo) as a single dose on an empty stomach. Analysis of the pharmacokinetics of intact rovatirelin under this condition indicated linearity of Cmax (maximum plasma concentration), AUC0-∞ (area under the plasma concentration curve vs. time curve from time 0 to infinity), and Ae0-48 (cumulative amount excreted into urine from time 0-48 hours) of rovatirelin in a dosage range from 0.1-10 mg.

[7] = PTL 2; cited from earlier work
animal models = conditions: PTL 2; cited from earlier work
[8] = 0.5 mg once daily (0.5 mg/qd) compared with 0.25 mg twice daily
[9] = 1 mg once daily (1 mg/qd) compared with 0.5 mg twice daily
[10] = 2.4 mg group, elderly aged ≥65 years

Compound: CN1C(=O)C[C@@H](C(=O)N[C@@H](Cc2cnc[nH]2)C(=O)N2CCC[C@H]2C(N)=O)NC1=O.O.O.O.O [Taltirelin hydrate]
total improvement level (subjective assessment of a physician) versus placebo (ataxia in SCD; after 28 weeks, ataxia in SCD): significant difference | individual symptoms (symptom of ataxia) (ataxia in SCD; phase III double-blind comparative study): no significant improvement was observed

discontinuation rate (SCD patients [1]; 1.6 mg group (placebo 15.6%)): 17.8% | discontinuation rate (SCD patients [1]; 3.2 mg group (placebo 15.6%)): 28.9% | transition of FT3 value (serum concentration, mean) [3, 8]: proceeded at lower levels as a whole | FT4 concentrations versus reference limit ([3]; 0.5 mg twice daily, Day 5 and Day 9, reference limits 0.9 and 1.7 ng/dL): above the reference limit | transition of FT3 value (serum concentration, mean) [3, 9]: proceeded at lower levels as a whole | transition of FT4 values (serum concentration, mean) [3, 9]: proceeded at lower levels as a whole | discontinuation rate ([5]; 1.6 mg group (placebo 4.9%)): 16.0% | discontinuation rate ([5]; 2.4 mg group (placebo 4.9%)): 19.8%
Compound: C[C@@H]1OC(=O)N[C@@H]1C(=O)N[C@@H](Cc1cscn1)C(=O)N1CCC[C@H]1C [rovatirelin trihydrate]
amount of change in the SARA total score (SCD patients [1]; 0.4 mg once daily): −1.09 score | amount of change in the SARA total score (SCD patients [1]; 0.8 mg once daily): −1.27 score | amount of change in the SARA total score (SCD patients [1]; 1.6 mg once daily): −1.58 score | FT3 and FT4 concentrations versus upper reference limits (SCD patients [1]; 3.2 mg once daily): slightly above the upper reference limits | amount of change in the SARA total score (SCD patients [1]; 3.2 mg once daily): −1.65 score | side effect rate compared with placebo (Fisher's exact test) (SCD patients [1]; 3.2 mg once daily, P=0.002): significantly differed | deterioration rate for items (gait) [2]: 9.9% | deterioration rate of the SARA total score [2]: 21.0% | amount of change in the SARA total score ([2]; 81 patients who completed): −1.41 | transition of FT4 values (serum concentration, mean) [3, 8]: comparable for both groups or the transition for the 0.5 mg/qd group proceeded at slightly lower levels | amount of change in the SARA total score at an endpoint (SCD patients [4]; 1.6 mg once daily): −1.34 | amount of change in the SARA total score at an endpoint (SCD patients [4]; 2.4 mg once daily): −1.35 | FT3 and FT4 concentrations versus normal range ([5]; 1.6 mg and 2.4 mg groups, 4 weeks after the start of administration, no further increase subsequently): reached the upper limit of the normal range | SARA gait and stance scores compared with the placebo group ([5]; 1.6 mg group): no improvement was observed | SARA total score compared with the placebo group ([5]; 1.6 mg group): no improvement was observed | amount of change in the SARA total score ([5]; 1.6 mg once daily, 28 weeks, compared with pre-dose score): −0.75 | deterioration rate of the SARA total score ([5]; 2.4 mg group (placebo 30.9%)): 23.8% | amount of change in the SARA gait score [5, 10]: −0.19 | amount of change in the SARA stance score [5, 10]: −0.54 | amount of change in the SARA total score [5, 10]: −1.39 | amount of change in the SARA total score ([5]; 2.4 mg once daily, 28 weeks, compared with pre-dose score): −1.22

dose proportionality of AUC0-∞ [6]: linearity | dose proportionality of Ae0-48 (cumulative amount excreted into urine 0-48 hours) [6]: linearity | dose proportionality of Cmax (maximum plasma concentration) [6]: linearity
Compound: C[C@@H]1OC(=O)N[C@@H]1C(=O)N[C@@H](Cc1cscn1)C(=O)N1CCC[C@H]1C [rovatirelin, (4S,5S)-5-methyl-N-{(2S)-1-[(2R)-2-methylpyrrolidin-1-yl]-1-oxo-3-(1,3-thiazol-4-yl)propan-2-yl}-2-oxo-1,3-oxazolidine-4-carboxamide]
bioavailability (BA) [7]: high | effects in improving ataxia relative to taltirelin (animal models): at least 30 times
